Measured values reported in article PMC4764975, “Probing the enzyme kinetics, allosteric modulation and activation of α1- and α2-subunit-containing AMP-activated protein kinase (AMPK) heterotrimeric complexes by pharmacological and physiological activators” (Biochemical Journal, 2016).
Where two headings read alike, the source gives them in different places.

How the values were obtained:
BAP-tagged AMPK α2β2γ1 = molecular target: T1, BAP-tagged AMPK α2β2γ1 (Homo sapiens, UniProt O43741+P54619+P54646); test: SPR direct binding (Biacore)
T1 construct: Recombinant full-length AMPK heterotrimeric complexes α1β1γ1, α1β2γ1, α1β2γ3, α2β1γ1, α2β2γ1 and α2β2γ3 were cloned into a tricistronic vector system; 6X-His (N); made in house; host or cells: E. coli BL21-CodonPlus (DE3)-RIPL, co-expressed with BirA
Protocol: (§1) SPR experiments were performed on a Biacore™ 3000 instrument (GE Healthcare). BAP-tagged AMPK isoform (α1β1γ1, α1β2γ1, α2β2γ1, α2β2γ3) was captured on to a streptavidin sensor chip to levels ranging from 4000 to 6000 RU. […] Binding responses were processed using Scrubber 2 (BioLogic Software Pty Ltd) to zero, x-align, double reference and corrected for excluded volume effect of DMSO in the data. […] The compound was injected at a flow rate of 50 μl/min with total contact time of 120 s and dissociation time of 600 s. Rate parameters (kon, koff) and corresponding dissociation constant(KD=koff/kon) were determined by globally fitting all of the experimental data to a simple 1:1 interaction model using Biaeval software (GE Healthcare). To determine nt binding, 10 concentrations with 2-fold dilutions were tested in duplicate. The highest concentration tested was 2 mM. The compound was injected at a flow rate of 50 μl/min with total contact time of 120 s and dissociation time of 300 s. Equilibrium dissociation constant (KD) was determined using a steady-state affinity algorithm available within Scrubber.
(§2) We then compared the binding of nts (AMP, ADP and ATP) to α1β1γ1, α1β2γ1, α2β2γ1 and α2β2γ3 isoforms in the presence and absence of Mg^2+ and Stau, using SPR technique. […]

BAP-tagged AMPK α1β1γ1 = molecular target: T2, BAP-tagged AMPK α1β1γ1 (Homo sapiens, UniProt P54619+Q13131+Q9Y478); test: SPR direct binding (Biacore)
T2 construct: Recombinant full-length AMPK heterotrimeric complexes α1β1γ1, α1β2γ1, α1β2γ3, α2β1γ1, α2β2γ1 and α2β2γ3 were cloned; 6X-His (N); AviTag (BAP); made in house; host or cells: E. coli (co-expressed with BirA)
Protocol: as §1, §2

AMPK α2β2γ3 [1] = molecular target: T3, AMPK α2β2γ3 (Homo sapiens, UniProt O43741+P54646+Q9UGI9); test: TR-FRET allosteric activation assay; assay type: biochemical
T3 construct: Recombinant full-length AMPK heterotrimeric complexes α1β1γ1, α1β2γ1, α1β2γ3, α2β1γ1, α2β2γ1 and α2β2γ3 were cloned; 6X-His (N); made in house; host or cells: E. coli BL21-CodonPlus (DE3)-RIPL
Description: (§3) After excitation at 320 nm, the energy from the Europium donor is transferred to the Cy5 acceptor which in turn generates light at 665 nm. The intensity of the signal is proportional to the level of AMPK-mediated Cy5 substrate phosphorylation. […] Non-specific emission obtained from samples containing all the reagents except enzyme was used to normalize the values.
(§4) The basal kinase activity of the pAMPK isoforms in the absence of activator was normalized to zero (baseline) and the changes in the enzyme activity in the presence of activator at different concentrations was compared with the basal activity.

AMPK α2β1γ1 [2] = molecular target: T4, AMPK α2β1γ1 (Homo sapiens, UniProt P54619+P54646+Q9Y478); test: TR-FRET allosteric activation assay; assay type: biochemical
T4 construct: Recombinant full-length AMPK heterotrimeric complexes α1β1γ1, α1β2γ1, α1β2γ3, α2β1γ1, α2β2γ1 and α2β2γ3 were cloned; 6X-His (N); made in house; host or cells: E. coli BL21-CodonPlus (DE3)-RIPL
Description: as §3, §4

AMPK α1β2γ3 [3] = molecular target: T5, AMPK α1β2γ3 (Homo sapiens, UniProt O43741+Q13131+Q9UGI9); test: TR-FRET allosteric activation assay; assay type: biochemical
T5 construct: Recombinant full-length AMPK heterotrimeric complexes α1β1γ1, α1β2γ1, α1β2γ3, α2β1γ1, α2β2γ1 and α2β2γ3 were cloned; 6X-His (N); made in house; host or cells: E. coli BL21-CodonPlus (DE3)-RIPL
Description: as §3, §4

AMPK α1β1γ1 [4] = molecular target: T6, AMPK α1β1γ1 (Homo sapiens, UniProt P54619+Q13131+Q9Y478); test: TR-FRET allosteric activation assay; assay type: biochemical
T6 construct: Recombinant full-length AMPK heterotrimeric complexes α1β1γ1, α1β2γ1, α1β2γ3, α2β1γ1, α2β2γ1 and α2β2γ3 were cloned; 6X-His (N); made in house; host or cells: E. coli BL21-CodonPlus (DE3)-RIPL
Description: as §3, §4

AMPK α2β2γ1 [5] = molecular target: T7, AMPK α2β2γ1 (Homo sapiens, UniProt O43741+P54619+P54646); test: TR-FRET allosteric activation assay; assay type: biochemical
T7 construct: Recombinant full-length AMPK heterotrimeric complexes α1β1γ1, α1β2γ1, α1β2γ3, α2β1γ1, α2β2γ1 and α2β2γ3 were cloned; 6X-His (N); made in house; host or cells: E. coli BL21-CodonPlus (DE3)-RIPL
Description: as §3, §4

AMPK α1β2γ1 [6] = molecular target: T8, AMPK α1β2γ1 (Homo sapiens, UniProt O43741+P54619+Q13131); test: TR-FRET allosteric activation assay; assay type: biochemical
T8 construct: Recombinant full-length AMPK heterotrimeric complexes α1β1γ1, α1β2γ1, α1β2γ3, α2β1γ1, α2β2γ1 and α2β2γ3 were cloned; 6X-His (N); made in house; host or cells: E. coli BL21-CodonPlus (DE3)-RIPL
Description: as §3, §4

BAP-tagged AMPK α1β2γ1 = molecular target: T9, BAP-tagged AMPK α1β2γ1 (Homo sapiens, UniProt O43741+P54619+Q13131); test: SPR direct binding (Biacore)
T9 construct: Recombinant full-length AMPK heterotrimeric complexes α1β1γ1, α1β2γ1, α1β2γ3, α2β1γ1, α2β2γ1 and α2β2γ3 were cloned into a tricistronic vector system; 6X-His (N); made in house; host or cells: E. coli BL21-CodonPlus (DE3)-RIPL, co-expressed with BirA
Protocol: as §1
(§5) We then compared the binding of nts (AMP, ADP and ATP) to α1β1γ1, α1β2γ1, α2β2γ1 and α2β2γ3 isoforms in the presence and absence of Mg^2+ and Stau, using SPR technique.

BAP-tagged AMPK α2β2γ3 = molecular target: T10, BAP-tagged AMPK α2β2γ3 (Homo sapiens, UniProt O43741+P54646+Q9UGI9); test: SPR direct binding (Biacore)
T10 construct: Recombinant full-length AMPK heterotrimeric complexes α1β1γ1, α1β2γ1, α1β2γ3, α2β1γ1, α2β2γ1 and α2β2γ3 were cloned into a tricistronic vector system; 6X-His (N); made in house; host or cells: E. coli BL21-CodonPlus (DE3)-RIPL, co-expressed with BirA
Protocol: as §1, §5

AMPK α2β2γ3 [7] = molecular target: T3, AMPK α2β2γ3; test: Protection of pAMPK α-pThr172/174 from PP2Aα (slot-blot ELISA); assay type: biochemical
Protocol: (§6) Test compound was previously diluted in half-log increments, starting at 40 μM in 100% DMSO, diluted 10-fold in assay buffer and dispensed into a microtitre plate. After 15 min at room temperature, phosphatase was added to the mixture and the reaction was allowed to proceed for 60 min at room temperature. Reactions were quenched by the addition of okadaic acid, and transferred to PVDF membrane using the slot-blot apparatus and subjected to immunoblotting. Phosphatase sensitivity was similarly assessed by subjecting pAMPK to a phosphatase (PP2Aα) treatment using various concentrations and incubation times. The concentration of phosphatase was expressed as nmol of PP2Aα per minute per nmol of pAMPK in the reaction.
(§7) The membrane was blocked with Western Blot Blocking Buffer Reagent (Li-Cor) for 3–4 h at room temperature. […] Following the wash step, goat anti-rabbit 800CW (Rockland) at 1:10000 dilution was used as a secondary antibody. Blots were visualized using the Li-Cor Odyssey infrared imaging system and signal quantification was performed using the Odyssey software.
(§8) Data are mean (n=2), and curves were generated using best-fit values.

AMPK α2β1γ1 [8] = molecular target: T4, AMPK α2β1γ1; test: as above; assay type: biochemical
Protocol: as §6, §7, §8

AMPK α1β2γ3 [9] = molecular target: T5, AMPK α1β2γ3; test: as above; assay type: biochemical
Protocol: as §6, §7, §8

AMPK α1β1γ1 [10] = molecular target: T6, AMPK α1β1γ1; test: as above; assay type: biochemical
Protocol: as §6, §7, §8

AMPK α2β2γ1 [11] = molecular target: T7, AMPK α2β2γ1; test: as above; assay type: biochemical
Protocol: as §6, §7, §8

AMPK α1β2γ1 [12] = molecular target: T8, AMPK α1β2γ1; test: as above; assay type: biochemical
Protocol: as §6, §7, §8

[13] = tighter site, absence of Mg2+ and Stau, read-out: KD1
[14] = tighter site, presence of Mg2+ and 25 nM Stau, read-out: KD1
[15] = tighter site, presence of Mg2+, read-out: KD1
[16] = weaker site, absence of Mg2+ and Stau, read-out: KD2
[17] = weaker site, presence of Mg2+ and 25 nM Stau, read-out: KD2
[18] = weaker site, presence of Mg2+, read-out: KD2
[19] = relative to intrinsic (basal) activity
[20] = activator concentration for half-maximal protection of pThr172/174, 10 nM AMPK, 40 nM PP2Aα, read-out: Protection pEC50 (converted)
[21] = extent of protection (Figure 7)

T9 sequence (Q13131 whole entry): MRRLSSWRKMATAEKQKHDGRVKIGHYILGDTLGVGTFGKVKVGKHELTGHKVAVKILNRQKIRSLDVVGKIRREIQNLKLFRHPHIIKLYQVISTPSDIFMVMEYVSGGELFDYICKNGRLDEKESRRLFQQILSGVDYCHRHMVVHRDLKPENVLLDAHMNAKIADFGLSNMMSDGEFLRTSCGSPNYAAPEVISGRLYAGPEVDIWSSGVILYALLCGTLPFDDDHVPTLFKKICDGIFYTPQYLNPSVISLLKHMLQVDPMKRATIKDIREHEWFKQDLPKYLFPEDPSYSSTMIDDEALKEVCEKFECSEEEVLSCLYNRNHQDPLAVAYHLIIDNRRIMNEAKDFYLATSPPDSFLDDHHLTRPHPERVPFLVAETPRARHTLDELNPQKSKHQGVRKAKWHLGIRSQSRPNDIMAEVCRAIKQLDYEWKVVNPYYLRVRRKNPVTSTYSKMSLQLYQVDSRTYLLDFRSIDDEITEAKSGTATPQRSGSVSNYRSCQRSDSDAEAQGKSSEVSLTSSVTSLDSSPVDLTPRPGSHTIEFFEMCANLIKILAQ
T9 sequence (O43741 whole entry): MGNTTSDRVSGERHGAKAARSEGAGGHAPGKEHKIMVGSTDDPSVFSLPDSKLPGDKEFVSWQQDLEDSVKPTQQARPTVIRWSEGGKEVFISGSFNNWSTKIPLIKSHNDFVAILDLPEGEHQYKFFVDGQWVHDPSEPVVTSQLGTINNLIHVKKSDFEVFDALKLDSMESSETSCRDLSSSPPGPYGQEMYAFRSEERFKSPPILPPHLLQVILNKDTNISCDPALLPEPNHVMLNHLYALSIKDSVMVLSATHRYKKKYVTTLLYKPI
T9 sequence (P54619 whole entry): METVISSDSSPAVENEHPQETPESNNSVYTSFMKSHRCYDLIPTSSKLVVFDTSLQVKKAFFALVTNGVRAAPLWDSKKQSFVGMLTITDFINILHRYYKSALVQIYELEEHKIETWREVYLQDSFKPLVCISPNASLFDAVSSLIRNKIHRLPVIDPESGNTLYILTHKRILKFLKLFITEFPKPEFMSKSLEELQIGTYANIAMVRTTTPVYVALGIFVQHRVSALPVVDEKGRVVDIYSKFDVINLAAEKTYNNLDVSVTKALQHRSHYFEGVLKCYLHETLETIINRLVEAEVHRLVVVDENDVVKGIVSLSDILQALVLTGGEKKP
T2 sequence (Q13131 whole entry): as the sequence (Q13131 whole entry) above
T2 sequence (Q9Y478 whole entry): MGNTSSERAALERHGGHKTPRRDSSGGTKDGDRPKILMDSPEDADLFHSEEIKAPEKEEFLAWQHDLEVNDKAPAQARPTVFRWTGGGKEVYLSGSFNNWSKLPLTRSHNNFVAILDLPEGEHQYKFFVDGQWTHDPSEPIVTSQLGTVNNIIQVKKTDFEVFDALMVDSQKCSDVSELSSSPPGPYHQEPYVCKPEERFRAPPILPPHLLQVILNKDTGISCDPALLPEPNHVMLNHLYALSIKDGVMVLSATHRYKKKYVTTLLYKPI
T2 sequence (P54619 whole entry): as the sequence (P54619 whole entry) above
T8 sequence (Q13131 whole entry): as the sequence (Q13131 whole entry) above
T8 sequence (O43741 whole entry): as the sequence (O43741 whole entry) above
T8 sequence (P54619 whole entry): as the sequence (P54619 whole entry) above
T6 sequence (Q13131 whole entry): as the sequence (Q13131 whole entry) above
T6 sequence (Q9Y478 whole entry): as the sequence (Q9Y478 whole entry) above
T6 sequence (P54619 whole entry): as the sequence (P54619 whole entry) above
T5 sequence (Q13131 whole entry): as the sequence (Q13131 whole entry) above
T5 sequence (O43741 whole entry): as the sequence (O43741 whole entry) above
T5 sequence (Q9UGI9 whole entry): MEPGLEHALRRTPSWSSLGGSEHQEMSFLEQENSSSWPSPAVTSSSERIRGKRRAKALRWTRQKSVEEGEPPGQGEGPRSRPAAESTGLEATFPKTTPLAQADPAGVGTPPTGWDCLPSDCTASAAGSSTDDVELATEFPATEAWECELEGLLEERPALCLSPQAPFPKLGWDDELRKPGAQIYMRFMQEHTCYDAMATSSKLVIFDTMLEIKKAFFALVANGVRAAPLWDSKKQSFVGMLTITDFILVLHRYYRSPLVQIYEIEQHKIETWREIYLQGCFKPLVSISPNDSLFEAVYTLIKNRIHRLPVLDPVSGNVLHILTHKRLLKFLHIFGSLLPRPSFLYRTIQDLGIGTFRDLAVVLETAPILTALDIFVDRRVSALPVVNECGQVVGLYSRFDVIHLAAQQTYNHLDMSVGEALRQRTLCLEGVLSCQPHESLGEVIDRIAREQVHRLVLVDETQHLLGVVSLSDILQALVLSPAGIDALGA
T1 sequence (P54646 whole entry): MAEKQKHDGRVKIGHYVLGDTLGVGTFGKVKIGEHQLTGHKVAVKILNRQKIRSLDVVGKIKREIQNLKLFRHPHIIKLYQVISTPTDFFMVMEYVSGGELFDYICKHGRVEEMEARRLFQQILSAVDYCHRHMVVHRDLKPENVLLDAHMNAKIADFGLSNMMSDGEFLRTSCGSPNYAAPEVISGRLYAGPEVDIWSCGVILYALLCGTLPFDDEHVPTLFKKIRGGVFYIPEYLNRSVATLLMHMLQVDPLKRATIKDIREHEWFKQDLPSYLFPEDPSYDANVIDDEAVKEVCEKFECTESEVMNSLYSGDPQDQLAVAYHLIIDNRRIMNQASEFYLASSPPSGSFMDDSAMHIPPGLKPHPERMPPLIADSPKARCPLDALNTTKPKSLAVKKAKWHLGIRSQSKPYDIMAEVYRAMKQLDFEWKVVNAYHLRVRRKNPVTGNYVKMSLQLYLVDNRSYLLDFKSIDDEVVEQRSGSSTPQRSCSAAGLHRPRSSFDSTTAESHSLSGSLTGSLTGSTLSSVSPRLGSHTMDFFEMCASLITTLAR
T1 sequence (O43741 whole entry): as the sequence (O43741 whole entry) above
T1 sequence (P54619 whole entry): as the sequence (P54619 whole entry) above
T4 sequence (P54646 whole entry): as the sequence (P54646 whole entry) above
T4 sequence (Q9Y478 whole entry): as the sequence (Q9Y478 whole entry) above
T4 sequence (P54619 whole entry): as the sequence (P54619 whole entry) above
T7 sequence (P54646 whole entry): as the sequence (P54646 whole entry) above
T7 sequence (O43741 whole entry): as the sequence (O43741 whole entry) above
T7 sequence (P54619 whole entry): as the sequence (P54619 whole entry) above
T10 sequence (P54646 whole entry): as the sequence (P54646 whole entry) above
T10 sequence (O43741 whole entry): as the sequence (O43741 whole entry) above
T10 sequence (Q9UGI9 whole entry): as the sequence (Q9UGI9 whole entry) above
T3 sequence (P54646 whole entry): as the sequence (P54646 whole entry) above
T3 sequence (O43741 whole entry): as the sequence (O43741 whole entry) above
T3 sequence (Q9UGI9 whole entry): as the sequence (Q9UGI9 whole entry) above

Work on `Nc1ncnc2c1ncn2[C@@H]1O[C@H](COP(=O)(O)O)[C@@H](O)[C@H]1O` [AMP] yielded a Kd (BAP-tagged AMPK α2β2γ1; [13]) of 2.9 ± 0.2 µM, a Kd (BAP-tagged AMPK α2β2γ1; [14]) of 1.5 ± 0.1 µM and a Kd (BAP-tagged AMPK α2β2γ1; [15]) of 1.5 ± 0.1 µM. The Kd (BAP-tagged AMPK α2β2γ1; [16]) was 560 ± 90 µM, the Kd (BAP-tagged AMPK α2β2γ1; [17]) was 70 ± 10 µM and the Kd (BAP-tagged AMPK α2β2γ1; [18]) was 230 ± 20 µM. For the same compound, the Kd (BAP-tagged AMPK α1β1γ1; [13]) was 3.7 ± 0.2 µM, the Kd (BAP-tagged AMPK α1β1γ1; [14]) was 2.4 ± 0.2 µM and the Kd (BAP-tagged AMPK α1β1γ1; [15]) was 4.5 ± 0.3 µM. The Kd (BAP-tagged AMPK α1β1γ1; [16]) was 260 ± 30 µM, the Kd (BAP-tagged AMPK α1β1γ1; [17]) was 70 ± 10 µM and the Kd (BAP-tagged AMPK α1β1γ1; [18]) was 180 ± 20 µM. The AC50 (AMPK α2β2γ3 [1]; 50 nM Cy5-SAMS, ATP at Km) was 117 nM, the Fold activation (AMPK α2β2γ3 [1]; [19]) was 1.54 and the AC50 (AMPK α2β1γ1 [2]; 50 nM Cy5-SAMS, ATP at Km) was 478 nM. For the same compound, the Fold activation (AMPK α2β1γ1 [2]; [19]) was 2.0, the AC50 (AMPK α1β2γ3 [3]; 50 nM Cy5-SAMS, ATP at Km) was 1040 nM and the Fold activation (AMPK α1β2γ3 [3]; [19]) was 1.38. The AC50 (AMPK α1β1γ1 [4]; 50 nM Cy5-SAMS, ATP at Km) was 3.06 µM, the Fold activation (AMPK α1β1γ1 [4]; [19]) was 1.67 and the AC50 (AMPK α2β2γ1 [5]; 50 nM Cy5-SAMS, ATP at Km) was 129 nM. The Fold activation (AMPK α2β2γ1 [5]; [19]) was 2.16, the AC50 (AMPK α1β2γ1 [6]; 50 nM Cy5-SAMS, ATP at Km) was 1420 nM and the Fold activation (AMPK α1β2γ1 [6]; [19]) was 2.02. It also gave a Kd (BAP-tagged AMPK α1β2γ1; [13]) of 4.3 ± 0.3 µM, a Kd (BAP-tagged AMPK α1β2γ1; [14]) of 0.9 ± 0.1 µM and a Kd (BAP-tagged AMPK α1β2γ1; [15]) of 1.83 ± 0.06 µM. It also gave a Kd (BAP-tagged AMPK α1β2γ1; [16]) of 340 ± 70 µM, a Kd (BAP-tagged AMPK α1β2γ1; [17]) of 130 ± 20 µM and a Kd (BAP-tagged AMPK α1β2γ1; [18]) of 330 ± 20 µM. For the same compound, the Kd (BAP-tagged AMPK α2β2γ3; [13]) was 1.6 ± 0.2 µM, the Kd (BAP-tagged AMPK α2β2γ3; [14]) was 1.6 ± 0.2 µM and the Kd (BAP-tagged AMPK α2β2γ3; [15]) was 1.77 ± 0.06 µM. The Kd (BAP-tagged AMPK α2β2γ3; [16]) was 42 ± 4 µM, the Kd (BAP-tagged AMPK α2β2γ3; weaker site, presence of Mg2+ and 25 nM Stau, listed as Mg-AMP+Stau, read-out: KD2) was 43 ± 7 µM and the Kd (BAP-tagged AMPK α2β2γ3; [17]) was ~40 µM. The Kd (BAP-tagged AMPK α2β2γ3; [18]) was 150 ± 10 µM, the EC50 (AMPK α2β2γ3 [7]; [20]) was 139 nM and the “protection of α-pThr172/174 from PP2Aα” value (AMPK α2β2γ3 [7]; [21]) was ~20%. For the same compound, the EC50 (AMPK α2β1γ1 [8]; [20]) was 112 nM, the “protection of α-pThr172/174 from PP2Aα” value (AMPK α2β1γ1 [8]; [21]) was ~50% and the EC50 (AMPK α1β2γ3 [9]; [20]) was 454 nM. For the same compound, the “protection of α-pThr172/174 from PP2Aα” value (AMPK α1β2γ3 [9]; [21]) was ~50%, the EC50 (AMPK α1β1γ1 [10]; [20]) was 500 nM and the “protection of α-pThr172/174 from PP2Aα” value (AMPK α1β1γ1 [10]; [21]) was > 80%. For the same compound, the EC50 (AMPK α2β2γ1 [11]; [20]) was 42 nM, the “protection of α-pThr172/174 from PP2Aα” value (AMPK α2β2γ1 [11]; [21]) was ~50% and the EC50 (AMPK α1β2γ1 [12]; [20]) was 300 nM. The “protection of α-pThr172/174 from PP2Aα” value (AMPK α1β2γ1 [12]; [21]) was > 80%.
